Test results published in patent publication US11913018B2, “In vitro production of expanded potential stem cells” (GENOME RESEARCH LIMITED, priority 2014, dated 2024).

Columns and labels:
[1] = test system: EPSCs; assay: EPSCM with other wnt inhibitor in place of XAV939; format: cell-based
[2] = test system: AB2.2 mouse ESCs; assay: TE contribution of mouse ESCs cultured in inhibitor combinations, injected to 8-cell host embryos; format: cell-based; settings: AB2.2 mouse ESCs cultured at least 5 passages, chimera blastocysts co-stained for mCherry and Cdx2
Excerpt: Mouse EPSCs were initially derived and maintained in the standard EPSCM that contains six inhibitors (see materials and methods). To determine the effects of individual inhibitors in EPSCM and to explore the possibility that fewer inhibitors might be sufficient for the expanded potential in mouse stem cells, we cultured AB2.2 mouse ESCs in various combinations of inhibitors, initially based on the 2i/LIF medium, for at least 5 passages before injected to 8-cell host embryos. The chimera blastocysts were co-stained for mCherry and Cdx2 for TE contribution.
Injections were carried out with a Nikon Eclipse TE2000-U inverted microscope unit. ESC/EPSC microinjection was performed at room temperature on the inverted lid of a 100-mm falcon culture dish in an injection drop of 1.0 ml M2 medium (Sigma) The embryo was injected with 6-8 cells per 8-cell stage embryo for bulk injection or 1 cell per embryo for single cell injection. After 45-50 embryos have been injected, the injected embryos were washed three times in KSOM (Millipore) containing 3.0 mg/ml BSA, Embryos were then transferred into a well of four-well plate containing 1.0 ml KSOM. After overnight culture, 20-25 injected embryos were transferred into both uterus of a foster recipient.

[3] = test system: human EPSCs; assay: Culture and maintenance of human EPSCs; format: cell-based
Excerpt: We also investigated whether human ESCs could survive and proliferate in EPSCM. H1 hESCs were maintained in standard FGF2 containing media on feeders. H1 cells survived culture in EPSCM and morphologically distinct 3-dimensional colonies emerged within one passage. Continued culture allowed establishment of a stable line which we called H1-EPSCs.
Human iPSC lines were also produced from human neural stem cells, and from human fetal or adult skin fibroblast cells using the six-factor reprogramming technology described in Wang et al (2011) and cultured for 2-3 weeks on feeders. The resulting iPSCs were switched to EPSCM and transgene free stable lines were established (EPSC-iPSCs). (FIG. 6). Stable human EPSC-iPSC lines have been passaged for over 30 passages in EPSCM.
We made several reporter EPSC lines that have a GFP or mCherry expression cassette at loci including Oct4, Sox2 and ROSA26. […] Importantly, these reporter cells provide a convenient way to assess the culture condition. […] However, we have also observed cases where EPSCM supplemented with fewer than six inhibitors has been able to obtain EPSCs. For example, where the EPSCM is supplemented with a chemically defined basal medium, such as Albumax II, it has been observed that fewer than six inhibitors are required obtain EPSCs. […]

[4] = test system: Jak/Stat pathway; assay: LIF response in ESCs and EPSCs; format: cell-based, mouse; settings: adding LIF to EPSCs
Procedure: For LIF stimulation, 1.0×10^6 cells were seeded in […] for 24 hours. Cells were washed with PBS and cultured in DMEM/F12/KSR for 4 hours, then LIF was supplemented at concentration of 0.0, 0.5, 1.0, 5.0 and 10.0 ng/ml for 30 minutes. Whole cell protein was extracted for Western blot using pSTAT3 (Cell signalling) and STAT3 (BD Biosciences) antibodies. α-Tubulin (Abcam) was used as loading control.
To analyse the expression of down-stream target genes of Jak-Stat3 and MAPK signalling at transcription level after LIF stimulation, both E14Tg2a ESCs and EPSCs were deprived of LIF for 4 hours as above, LIF 1.0 ng/ml was supplemented for 1 hour, total RNA was extracted and reverse transcribed to make cDNA. qPCR was performed using Taqman Gene Expression Assays (ABI)

## Cc1cc(/C=C2\SC(=O)N(c3ccccc3)C2=O)c(C)n1-c1cccnc1 [iCRT 14]
[1]
  use as the wnt inhibitor in EPSCM in place of XAV939: successfully used

## Cc1ccc2nc(NC(=O)CSc3nc4c(c(=O)n3-c3ccccc3)SCC4)sc2c1 [IWP-2]
[1]
  use as the wnt inhibitor in EPSCM in place of XAV939: successfully used

## CN1CCN(C2CCC(n3cc(-c4ccc(Oc5ccccc5)cc4)c4c(N)ncnc43)CC2)CC1 (centres unmarked) [A419259]
[2]
  TE contribution on adding inhibitor to the 2i/LIF (2i) medium: substantially increased TE contribution

## Oc1nc(-c2ccc(C(F)(F)F)cc2)nc2c1CSCC2 [XAV939]
[2]
  TE contribution on adding inhibitor to the 2i/LIF (2i) medium: substantially increased TE contribution

## CCOc1nc(NC(=O)Cc2cc(OC)ccc2OC)cc(N)c1C#N [JNKi]
[3]
  effect of inhibitor absence on human EPSC culture: absence caused gradual deterioration

## LIF: leukemia inhibitory factor, a cytokine
[4]
  expression of Jak/Stat downstream genes: upregulated expression of Jak/Stat downstream genes
  phosphorylation of Stat3: increased phosphorylation of Stat3

## C[S+]([O-])c1ccc(-c2nc(-c3ccncc3)c(-c3ccc(F)cc3)[nH]2)cc1 (centres unmarked) [p38i]
[3]
  effect of inhibitor absence on human EPSC culture: absence caused gradual deterioration
